The structures appear in SMILES notation. Structures can show the parent of a compound that is named as a salt.

The target in assay [1] is T1, sRAGE binding to β-amyloid (Homo sapiens, UniProt Q15109).
T1 construct: extracellular domain can be isolated by proteolysis of RAGE to generate soluble RAGE (sRAGE) comprised of the V and C domains
Put plainly: RAGE binding assay (ELISA), β-amyloid as the RAGE ligand. Conditions: compounds tested in hydrochloride salt form, concentration at which 50% signal has been inhibited. The procedure, abridged: (§1)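 Ligand (500 ng/well) coated in carbonate buffer pH 9.8 overnight at 4° C and blocked with 1% BSA; test compound (10-100 μM in water, 4% DMSO co-solvent) incubated with sRAGE (6 nM FAC) 1 h at 37° C. Bound sRAGE detected by anti-sRAGE/biotin-anti-mouse/AP-streptavidin with pNPP, A405. IC50 = 50% signal inhibition.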

Another assay concerns the target T2, sRAGE binding to S100b (Homo sapiens, UniProt Q15109).
T2 construct: extracellular domain can be isolated by proteolysis of RAGE to generate soluble RAGE (sRAGE) comprised of the V and C domains
Description: RAGE binding assay (ELISA), S100b as the RAGE ligand. The following applies: compounds tested in hydrochloride salt form, concentration at which 50% signal has been inhibited. The method in brief: as §1

T2 sequence (Q15109 23-342 limits assumed): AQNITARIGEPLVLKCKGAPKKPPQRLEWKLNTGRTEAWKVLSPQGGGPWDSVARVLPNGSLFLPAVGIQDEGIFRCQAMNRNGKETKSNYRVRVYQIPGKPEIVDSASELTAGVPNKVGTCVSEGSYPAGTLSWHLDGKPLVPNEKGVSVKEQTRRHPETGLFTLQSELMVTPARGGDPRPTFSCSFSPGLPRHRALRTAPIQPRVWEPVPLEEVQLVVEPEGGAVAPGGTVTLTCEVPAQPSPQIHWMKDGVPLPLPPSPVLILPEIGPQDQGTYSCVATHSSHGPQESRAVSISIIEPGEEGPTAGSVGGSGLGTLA
T1 sequence (Q15109 23-342 limits assumed): as above

Take `CCCCc1nnc(OC2CCN(CCO)CC2)cc1-c1ccc(OC2CCCCC2)cc1` [Example 17, 2-{4-[6-Butyl-5-(4-cyclohexyloxy-phenyl)-pyridazin-3-yloxy]-piperidin-1-yl}-ethanol dihydrochloride]: the IC50 in assay [1] turned out to be 820 nM; on sRAGE binding to S100b, 810 nM.

`CCCCc1nnc(C(=O)NCC2CNCCO2)cc1-c1ccc(OC2CCCCC2)cc1` (stereo not shown) [Example 90, 6-Butyl-5-(4-cyclohexyloxy-phenyl)-pyridazine-3-carboxylic acid (morpholin-2-ylmethyl)-amide dihydrochloride]: the IC50 in assay [1] came out at 1780 nM; at sRAGE binding to S100b it was 1540 nM.

With `CCCCc1nnc(C(=O)NCC2CN(C)CCC2(F)F)cc1-c1ccc(OC2CCCCC2)cc1` (stereo not shown) [Example 99, 6-Butyl-5-(4-cyclohexyloxy-phenyl)-pyridazine-3-carboxylic acid (4,4-difluoro-1-methyl-piperidin-3-ylmethyl)-amide dihydrochloride], the 50% inhibitory concentration (IC50) in assay [1] turned out to be 1810 nM; at sRAGE binding to S100b it was 1820 nM.

`CCCCc1nnc(C(=O)N(C2CC2)C2CCN(C)CC2)cc1-c1ccc(OC2CCCCC2)cc1` [Example 115, 6-Butyl-5-(4-cyclohexyloxy-phenyl)-pyridazine-3-carboxylic acid cyclopropyl-(1-methyl-piperidin-4-yl)-amide dihydrochloride]: the IC50 in assay [1] is 1000 nM; on sRAGE binding to S100b, 1120 nM.

Regarding `CCCCc1nnc(C(=O)NC[C@H]2CCN(C)C[C@H]2F)cc1-c1ccc(OC2CCCCC2)cc1` (racemic) [Example 110, (±)-cis-6-Butyl-5-(4-cyclohexyloxy-phenyl)-pyridazine-3-carboxylic acid (3-fluoro-1-methyl-piperidin-4-ylmethyl)-amide dihydrochloride], the results for the IC50 (in assay [1]; at sRAGE binding to S100b) were 1340 nM and 1040 nM, respectively.

On to `CCCCc1nnc(C(=O)NCC2CN(C)CCC2O)cc1-c1ccc(OC2CCCCC2)cc1` (stereo not shown) [Example 100, 6-Butyl-5-(4-cyclohexyloxy-phenyl)-pyridazine-3-carboxylic acid (4-hydroxy-1-methyl-piperidin-3-ylmethyl)-amide dihydrochloride], for which the IC50 in assay [1] was determined as 1160 nM; at sRAGE binding to S100b it was 590 nM.

For `CCCCc1nnc(OC2CCN(C)CC2)cc1-c1ccc(OC2CCCCC2)c(N(CC(C)C)S(C)(=O)=O)c1` [Example 64, N-{5-[3-butyl-6-(1-methyl-piperidin-4-yloxy)-pyridazin-4-yl]-2-cyclohexyloxy-phenyl}-N-isobutyl-methanesulfonamide dihydrochloride], the results for the concentration for half-maximal inhibition (IC50) (in assay [1]; on sRAGE binding to S100b) were 840 nM and 880 nM, respectively.

With `CCCCc1nnc(C(=O)N2CCC(O)C(CN(C)C)C2)cc1-c1ccc(OC2CCCCC2)cc1` (stereo not shown) [Example 106, [6-Butyl-5-(4-cyclohexyloxy-phenyl)-pyridazin-3-yl]-(3-dimethylaminomethyl-4-hydroxyoxy-piperidin-1-yl)-methanone dihydrochloride], the IC50 is 1750 nM in assay [1] and 2180 nM on sRAGE binding to S100b.

Consider `CCCCc1nnc(OC2CCN(C)CC2)cc1-c1ccc(OC2CCCCC2)c(O)c1` [Example 74, 5-[3-Butyl-6-(1-methyl-piperidin-4-yloxy)-pyridazin-4-yl]-2-cyclohexyloxy-phenol dihydrochloride], for which the results for the IC50 (in assay [1]; at sRAGE binding to S100b) were 1160 nM and 1640 nM, respectively.

Turning to `CCCCc1nnc(OC2CCN(C)CC2)cc1-c1ccc(OC2CCCCC2)c(C(C)=O)c1` [Example 66, 1-{5-[3-Butyl-6-(1-methyl-piperidin-4-yloxy)-pyridazin-4-yl]-2-cyclohexyloxy-phenyl}-ethanone], the IC50 came to 1830 nM in assay [1] and 1470 nM at sRAGE binding to S100b.

Take `CN1CCC(Oc2cc(-c3ccc(OC4CCCCC4)cc3)c(C3CCC3)nn2)CC1` [Example 61, 3-cyclobutyl-4-(4-cyclohexyloxy-phenyl)-6-(1-methyl-piperidin-4-yloxy)-pyridazine dihydrochloride]: the figures for the IC50 (in assay [1]; at sRAGE binding to S100b) were 3720 nM and 3400 nM, respectively.

Take `CCCCc1nnc(O[C@H]2CCN(C)C[C@@H]2F)cc1-c1ccc(OC2CCCCC2)cc1` (racemic) [Example 41, (±)-trans-3-Butyl-4-(4-cyclohexyloxy-phenyl)-6-(3-fluoro-1-methylpiperidin-4-yloxy)-pyridazine dihydrochloride]: the IC50 in assay [1] was 4040 nM; at sRAGE binding to S100b, 2190 nM.

For the compound `CCCCc1nnc(OC[C@H]2CN(C)C[C@@H]2COC)cc1-c1ccc(OCc2ccccc2)cc1` (racemic) [Example 7, (±)-trans-4-(4-Benzyloxy-phenyl)-3-butyl-6-(4-methoxymethyl-1-methyl-pyrrolidin-3-ylmethoxy)-pyridazine dihydrochloride], the figures for the IC50 (in assay [1]; on sRAGE binding to S100b) were 1520 nM and 2330 nM, respectively.

Turning to `CCCCc1nnc(C(=O)NCC2(OC)CCN(C)CC2)cc1-c1ccc(OC2CCCCC2)cc1` [Example 89, 6-Butyl-5-(4-cyclohexyloxy-phenyl)-pyridazine-3-carboxylic acid (4-methoxy-1-methyl-piperidin-4-ylmethyl)-amide dihydrochloride], the figures for the IC50 (in assay [1]; on sRAGE binding to S100b) were 2010 nM and 2730 nM, respectively.

Take `CCCCc1nnc(OC2CCN(C)CC2)cc1-c1ccc(OCC2CCOCC2)cc1` [Example 54, 3-butyl-6-(1-methyl-piperidin-4-yloxy)-4-[4-(tetrahydro-pyran-4-ylmethoxy)-phenyl]-pyridazine dihydrochloride]: the IC50 in assay [1] is 5450 nM; on sRAGE binding to S100b, 3650 nM.

Consider `CCCCc1nnc(C(=O)N2CC[C@@H](CN(C)C)[C@@H](OC)C2)cc1-c1ccc(OC2CCCCC2)cc1` (racemic) [Example 102, (±)-cis-[6-Butyl-5-(4-cyclohexyloxy-phenyl)-pyridazin-3-yl]-((3R,4S)-4-dimethylaminomethyl-3-methoxy-piperidin-1-yl)-methanone dihydrochloride], for which the results for the IC50 (in assay [1]; at sRAGE binding to S100b) were 1460 nM and 2610 nM, respectively.

On to `CCCCc1nnc(O[C@H]2CCN(C)C[C@H]2F)cc1-c1ccc(OC2CCCCC2)cc1` (racemic) [Example 42, (±)-cis-3-Butyl-4-(4-cyclohexyloxy-phenyl)-6-(3-fluoro-1-methylpiperidin-4-yloxy)-pyridazine dihydrochloride], for which the figures for the IC50 (in assay [1]; at sRAGE binding to S100b) were 1800 nM and 2210 nM, respectively.

`CCCCc1nnc(C(=O)N(C)C2CCN(C)CC2)cc1-c1ccc(OC2CCCCC2)cc1` [Example 114, 6-Butyl-5-(4-cyclohexyloxy-phenyl)-pyridazine-3-carboxylic acid methyl-(1-methyl-piperidin-4-yl)-amide dihydrochloride]: the IC50 in assay [1] came out at 970 nM; at sRAGE binding to S100b, 1080 nM.

Take `CCCCc1nnc(OC2CCN(C)CC2)cc1-c1ccc(OC2CCCCC2)c(-c2cnn(CCOC)c2)c1` [Example 78, 3-Butyl-4-{4-cyclohexyloxy-3-[1-(2-methoxy-ethyl)-1H-pyrazol-4-yl]-phenyl}-6-(1-methyl-piperidin-4-yloxy)-pyridazine dihydrochloride]: the IC50 in assay [1] turned out to be 1160 nM; at sRAGE binding to S100b it was 500 nM.

Take `CCCCc1nnc(C(=O)NC2(CO)CCN(C)C2)cc1-c1ccc(OC2CCCCC2)cc1` (stereo not shown) [Example 111, 6-Butyl-5-(4-cyclohexyloxy-phenyl)-pyridazine-3-carboxylic acid (3-hydroxymethyl-1-methyl-pyrrolidin-3-yl)-amide dihydrochloride]: the IC50 amounted to 2920 nM in assay [1] and 2120 nM on sRAGE binding to S100b.

Source of the values: patent publication US9045461B2, “Phenyl-heteroaryl derivatives and methods of use thereof” (TransTech Pharma, LLC, priority 2010, dated 2015).
